One experiment deals with Saccharomyces cerevisiae. Briefly: Percentage inhibition of Alpha-glucosidase from Yeast (maltase) at 1 mM.
The target of experiment [1] is T1, Beta-glucosidase A (Caldicellulosiruptor saccharolyticus, UniProt P10482). As to the kind of experiment: Inhibitory activity towards Beta-Glucosidase from Caldocellum saccharol.
Experiment [2] addresses Beta-galactosidase (Escherichia coli K-12) (UniProt P00722). As to the kind of experiment: Percentage inhibition of Beta-galactosidase from Escherichia coli at 1 mM concentration.
Experiment [3] addresses T2, Glucoamylase 1 (Rhizopus oryzae) (UniProt P07683).
T2 sequence (whole entry): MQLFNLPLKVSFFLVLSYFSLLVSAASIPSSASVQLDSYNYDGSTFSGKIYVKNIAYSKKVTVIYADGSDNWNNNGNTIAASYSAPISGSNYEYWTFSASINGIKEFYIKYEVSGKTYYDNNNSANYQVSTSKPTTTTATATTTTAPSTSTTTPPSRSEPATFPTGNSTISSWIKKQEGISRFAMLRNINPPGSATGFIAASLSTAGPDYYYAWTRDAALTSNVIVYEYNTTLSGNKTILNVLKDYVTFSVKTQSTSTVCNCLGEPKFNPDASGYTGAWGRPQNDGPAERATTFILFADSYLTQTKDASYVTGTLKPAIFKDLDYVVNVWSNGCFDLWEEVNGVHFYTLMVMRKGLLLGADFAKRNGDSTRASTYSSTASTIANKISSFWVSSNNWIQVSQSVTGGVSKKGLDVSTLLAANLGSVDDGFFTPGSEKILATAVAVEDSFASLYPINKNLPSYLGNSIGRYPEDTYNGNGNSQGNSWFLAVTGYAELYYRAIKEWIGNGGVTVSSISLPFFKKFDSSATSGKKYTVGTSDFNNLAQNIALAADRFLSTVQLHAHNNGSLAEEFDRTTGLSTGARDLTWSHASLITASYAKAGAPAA
Briefly: Percentage inhibition of Alpha-glucosidase from Rhizopus mold (amyloglucosidase) at 1 mM concentration; No inhibition. To be noted: Rhizopus arrhizus.

Experiment [4] addresses Glucoamylase (Aspergillus niger) (UniProt P69328). As to the kind of experiment: Percentage inhibition of Alpha-glucosidase from Aspergillus niger (amyloglucosidase) at 1 mM; No inhibition.
Experiment [5] in a line: Inhibitory activity towards Alpha-glucosidase from Yeast (maltase). Further details: species or system Saccharomyces cerevisiae.
In experiment [6] the target is T3, Beta-galactosidase (Bos taurus) (UniProt Q58D55).
T3 sequence (whole entry): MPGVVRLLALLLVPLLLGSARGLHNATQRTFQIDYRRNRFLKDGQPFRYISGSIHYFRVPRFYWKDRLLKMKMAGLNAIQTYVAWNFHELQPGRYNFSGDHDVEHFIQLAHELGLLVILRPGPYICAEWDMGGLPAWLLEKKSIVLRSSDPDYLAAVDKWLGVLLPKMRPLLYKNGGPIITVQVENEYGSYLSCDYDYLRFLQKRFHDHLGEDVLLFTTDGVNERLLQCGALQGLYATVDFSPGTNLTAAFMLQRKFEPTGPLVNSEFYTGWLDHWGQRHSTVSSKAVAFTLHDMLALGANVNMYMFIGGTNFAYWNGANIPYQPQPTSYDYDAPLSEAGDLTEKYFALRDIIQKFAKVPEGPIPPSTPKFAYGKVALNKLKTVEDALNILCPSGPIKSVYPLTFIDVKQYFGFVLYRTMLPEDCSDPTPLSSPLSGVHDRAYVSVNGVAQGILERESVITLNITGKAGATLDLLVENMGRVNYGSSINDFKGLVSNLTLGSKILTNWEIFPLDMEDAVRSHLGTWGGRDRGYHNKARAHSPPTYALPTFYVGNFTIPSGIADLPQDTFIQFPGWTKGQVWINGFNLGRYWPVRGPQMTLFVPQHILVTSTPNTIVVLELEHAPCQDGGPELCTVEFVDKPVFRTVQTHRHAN
As to the kind of experiment: Percentage inhibition of Beta-galactosidase from Bovine liver at 1 mM concentration.

The target in experiment [7] is Beta-glucosidase A (Caldicellulosiruptor saccharolyticus) (UniProt P10482). As to the kind of experiment: Percentage inhibition of Beta-Glucosidase from Caldocellum saccharol. at 1 mM.
Experiment [8] addresses T1, Beta-glucosidase A. Briefly: Inhibitory activity towards Beta-Glucosidase from Caldocellum saccharol.

One may read the inhibition as the percentage by which the read-out fell short of the control. The Ki is the equilibrium dissociation constant of an inhibitor or competing ligand from its target. Lower therefore signals a stronger hold on the target. As a reminder, the IC50 is the concentration at which inhibition is half-maximal. Read a low IC50 as inhibition by little substance.

Active and inactive are the calls of the source. No cut-off for these calls is given here.

T1 sequence (P10482 whole entry): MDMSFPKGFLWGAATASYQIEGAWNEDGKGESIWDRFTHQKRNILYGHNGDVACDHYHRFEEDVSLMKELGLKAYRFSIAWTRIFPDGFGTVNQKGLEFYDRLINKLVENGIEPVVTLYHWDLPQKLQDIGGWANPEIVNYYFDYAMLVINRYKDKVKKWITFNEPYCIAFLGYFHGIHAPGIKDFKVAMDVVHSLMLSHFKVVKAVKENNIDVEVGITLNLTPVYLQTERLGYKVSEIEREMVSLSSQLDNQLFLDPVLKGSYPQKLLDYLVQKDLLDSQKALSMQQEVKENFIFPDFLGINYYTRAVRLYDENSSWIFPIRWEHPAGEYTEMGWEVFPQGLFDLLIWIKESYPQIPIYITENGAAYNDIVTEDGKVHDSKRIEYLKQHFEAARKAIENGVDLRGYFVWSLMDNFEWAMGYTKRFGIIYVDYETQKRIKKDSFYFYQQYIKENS
Chain of Glucoamylase (Aspergillus niger) (P69328 whole entry): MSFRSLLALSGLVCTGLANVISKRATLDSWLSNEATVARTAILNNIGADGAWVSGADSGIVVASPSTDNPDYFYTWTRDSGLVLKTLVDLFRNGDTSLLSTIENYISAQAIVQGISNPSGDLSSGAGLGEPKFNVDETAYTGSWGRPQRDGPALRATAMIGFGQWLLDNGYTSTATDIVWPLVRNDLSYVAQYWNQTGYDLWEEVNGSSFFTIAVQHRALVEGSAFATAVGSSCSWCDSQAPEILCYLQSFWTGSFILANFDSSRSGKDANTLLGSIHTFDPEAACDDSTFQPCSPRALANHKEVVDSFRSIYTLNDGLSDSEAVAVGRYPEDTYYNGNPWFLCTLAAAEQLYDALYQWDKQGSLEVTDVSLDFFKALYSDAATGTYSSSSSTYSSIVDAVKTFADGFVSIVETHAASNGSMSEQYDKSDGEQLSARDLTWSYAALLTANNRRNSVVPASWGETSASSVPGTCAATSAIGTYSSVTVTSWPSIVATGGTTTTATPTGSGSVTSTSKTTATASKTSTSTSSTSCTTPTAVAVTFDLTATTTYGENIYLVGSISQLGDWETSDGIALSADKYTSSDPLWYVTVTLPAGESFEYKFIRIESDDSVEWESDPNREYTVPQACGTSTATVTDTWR
Chain of Beta-glucosidase A (Caldicellulosiruptor saccharolyticus) (P10482 whole entry): as the sequence (P10482 whole entry) above
Chain of Beta-galactosidase (Escherichia coli K-12) (P00722 whole entry): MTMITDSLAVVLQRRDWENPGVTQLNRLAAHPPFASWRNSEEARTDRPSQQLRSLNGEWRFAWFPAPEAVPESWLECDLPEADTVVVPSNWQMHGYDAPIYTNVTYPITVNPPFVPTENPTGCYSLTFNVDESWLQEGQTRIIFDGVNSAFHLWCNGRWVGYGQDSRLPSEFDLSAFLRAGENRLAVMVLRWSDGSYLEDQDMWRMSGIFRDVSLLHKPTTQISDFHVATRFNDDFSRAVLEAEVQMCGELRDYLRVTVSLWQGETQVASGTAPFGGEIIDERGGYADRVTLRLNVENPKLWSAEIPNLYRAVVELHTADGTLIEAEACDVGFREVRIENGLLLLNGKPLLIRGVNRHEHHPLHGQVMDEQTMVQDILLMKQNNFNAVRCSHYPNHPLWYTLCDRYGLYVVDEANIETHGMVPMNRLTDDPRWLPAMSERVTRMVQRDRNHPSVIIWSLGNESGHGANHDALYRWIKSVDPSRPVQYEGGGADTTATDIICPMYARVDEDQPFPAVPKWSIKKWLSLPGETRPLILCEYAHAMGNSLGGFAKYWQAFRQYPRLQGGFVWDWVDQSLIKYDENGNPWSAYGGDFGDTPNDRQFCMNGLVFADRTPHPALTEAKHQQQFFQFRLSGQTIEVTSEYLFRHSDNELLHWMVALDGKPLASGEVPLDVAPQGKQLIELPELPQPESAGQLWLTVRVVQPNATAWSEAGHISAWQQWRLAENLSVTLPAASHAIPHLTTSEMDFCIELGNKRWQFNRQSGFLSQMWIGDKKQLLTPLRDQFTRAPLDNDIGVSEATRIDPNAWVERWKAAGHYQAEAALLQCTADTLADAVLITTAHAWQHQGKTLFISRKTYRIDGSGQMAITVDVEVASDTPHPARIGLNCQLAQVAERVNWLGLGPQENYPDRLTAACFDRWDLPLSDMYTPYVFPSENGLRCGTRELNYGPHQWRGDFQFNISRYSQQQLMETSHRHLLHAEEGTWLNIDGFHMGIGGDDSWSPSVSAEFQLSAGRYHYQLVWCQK

`OC1CNC(CNCC2CCN(Cc3ccccc3)CC2)C1O` (centres undefined): the inhibition came out at 55% in the experiment on Saccharomyces cerevisiae, 39% in experiment [2], 53% in experiment [6] and 76% in experiment [7]. Besides, at Beta-glucosidase A [1], the inhibition constant (Ki) came to 120 µM. For the same compound, the inhibition entry in experiment [3] and in [4] was “inactive” in each case. For the same compound, the half-maximal inhibitory concentration (IC50) was determined as 610 µM in [5] and 290 µM against Beta-glucosidase A [8].

For the origin of these results see ChEMBL document CHEMBL1133958, “Derivatives of (2R,3R,4S)-2-aminomethylpyrrolidine-3,4-diol are selective alpha-mannosidase inhibitors” (Bioorg Med Chem Lett, 2001).
